Test results published in PMC5140066, “Electrophysiological Characteristics of Human iPSC-Derived Cardiomyocytes for the Assessment of Drug-Induced Proarrhythmic Potential” (PLoS ONE, 2016).

System: human induced pluripotent stem cell-derived cardiomyocytes (hiPSC-CMs)
Assay: Field potential recording of hiPSC-CM sheets on multi-electrode array (MEA)
Type: cell-based
Conditions: for Use (rate) dependence of FPD prolongation: from FPD-ISI plots
Procedure: The cells were thawed and suspended in iCell Cardiomyocytes Plating Medium (Cellular Dynamics International), then plated (approximately 2 × 10^6 cells/well) in 6-well tissue-culture plates coated with 0.1% gelatin. After two days of incubation at 37°C under an atmosphere of 5% CO2, the plating medium was replaced with iCell Cardiomyocytes Maintenance Medium (Cellular Dynamics International); this medium was used as the culture medium throughout the experiments and was replaced every 1 to 3 days. The cells were cultured for 7 to 14 days in a 5% CO2 incubator at 37°C and then re-plated onto MEA probes (MED-P515A or MED-PG515A; Alpha Med Scientific, Osaka, Japan).
The recording areas of the MEA probes were coated with fibronectin (Becton Dickinson, Franklin Lakes, NJ, USA; Invitrogen, Carlsbad, CA, USA; Corning, Corning, NY, USA). Fibronectin was dissolved in distilled water or Dulbecco's phosphate-buffered saline (PBS) [−] to give 50 μg/mL, the recording areas were covered with 2 μL fibronectin solution, and then the MEA probes were incubated at 37°C for at least 1 h. […] After discarding the fibronectin solution from the MEA probes without complete drying, the cell suspension at a density of 3.0 × 10^4 cells in a 2 μL droplet was re-plated onto the fibronectin-coated area of each MEA probe and incubated for 1 to 3 h in a 5% CO2 incubator at 37°C. Each well of the MEA probes was then filled with maintenance medium at a volume of 1 mL/well. The medium was replaced every 1 to 3 days thereafter, and the cells were cultured for 5 to 14 days to obtain high density cardiomyocyte-sheets with spontaneous and synchronous electrical activities.
Prior to recording FPs, the cardiomyocyte-sheets were equilibrated for at least 30 min in a 5% CO2 incubator at 37°C in fresh culture medium. The MEA probes were then transferred to a FP measurement apparatus (MED64 system; Alpha Med Scientific, Osaka, Japan) and covered with a lid through which humidified gas containing 5% CO2 was provided. […] Analogue FP signals from the spontaneously beating cardiomyocyte-sheets were acquired through a 0.1-Hz high-pass filter and a 5-kHz low-pass filter, and digitized at 20 kHz using the MED64 system. […] Compound stock solutions were prepared using DMSO at 1000-fold the target concentrations of the test compounds. The stock solutions were diluted with the maintenance medium to obtain the appropriate compound concentrations, then 1/10th to 1/50th the volume of the medium in the wells was exchanged with an equal volume of the compound-containing medium. The compounds were applied in a cumulative manner to the wells. The concentration of DMSO was 0.5–0.6% at the highest concentration of the test compounds. […] FPD (ms) and ISI (ms) were analyzed using Mobius QT software designed by WitWerx (Santa Cruz, CA, USA) (Fig 1b).
Baseline FP waveforms that met the following criteria were used for analysis. […] In the FP signals, EAD and TA were defined as slow negative spikes and a sharp deflection with an amplitude ≥ ± 100 μV, respectively (Fig 1c). EAD, TA or both usually appear during or after the second positive deflection. ISI, FPD and FPDcF were not calculated for concentrations in which EAD or TA were observed.
As previously mentioned, total 96 data equally from 4 facilities each were used for the analysis (24 data per facility). […] The root mean squared prediction error (RMSE) was used to show the level of accuracy of the equation predicted for the observed data (Fig 2). With categorical data analysis of FPD, inter-facilities differences were investigated with Kruskal-Wallis test (Fig 4).

[1] = cisapride 3 nM, all 4 facilities, n=24
[2] = cisapride 3 nM, facility A, n=6
[3] = cisapride 3 nM, facility B, n=6
[4] = cisapride 3 nM, facility C, n=6
[5] = cisapride 3 nM, facility D, n=6
[6] = cisapride 10 nM, all 4 facilities, n=24
[7] = cisapride 10 nM, all 4 facilities, n=24, listed as cisapride
[8] = cisapride 10 nM, facility A, n=6
[9] = cisapride 10 nM, facility B, n=6
[10] = cisapride 10 nM, facility C, n=6
[11] = cisapride 10 nM, facility D, n=6
[12] = cisapride 30 nM, all 4 facilities, n=24
[13] = cisapride 30 nM, facility A, n=6
[14] = cisapride 30 nM, facility B, n=6
[15] = cisapride 30 nM, facility C, n=6
[16] = cisapride 30 nM, facility D, n=6
[17] = cisapride 100 nM, all 4 facilities, n=24
[18] = cisapride 100 nM, facility D, n=6

SMILES: COc1cc(N)c(Cl)cc1C(=O)NC1CCN(CCCOc2ccc(F)cc2)CC1OC (stereo not drawn) [Cisapride, cisapride]
- Delta FPDcF (categorical analysis, Fridericia correction, S5 Table): increased in a concentration-dependent manner
- Delta FPD (categorical analysis, S4 Table): increased in a concentration-dependent manner
- Slope factor of FPD-ISI regression, % change (cisapride 3 nM): 0.6124
- Preparations in absolute FPD category > 450 ms [1]: 21%(5/24)
- Preparations in absolute FPD category > 480 ms [1]: 13%(3/24)
- Preparations in absolute FPD category > 500 ms [1]: 17%(4/24)
- Preparations in absolute FPD category ≤ 450 ms [1]: 50%(12/24)
- Preparations in absolute FPD category > 450 ms [2]: 17%(1/6)
- Preparations in absolute FPD category > 480 ms [2]: 17%(1/6)
- Preparations in absolute FPD category > 500 ms [2]: 50% (3/6)
- Preparations in absolute FPD category ≤ 450 ms [2]: 17%(1/6)
- Preparations in absolute FPD category > 450 ms [3]: 17%(1/6)
- Preparations in absolute FPD category > 480 ms [3]: 17%(1/6)
- Preparations in absolute FPD category > 500 ms [3]: 0% (0/6)
- Preparations in absolute FPD category ≤ 450 ms [3]: 67%(4/6)
- Preparations in absolute FPD category > 450 ms [4]: 17%(1/6)
- Preparations in absolute FPD category > 480 ms [4]: 17%(1/6)
- Preparations in absolute FPD category > 500 ms [4]: 17%(1/6)
- Preparations in absolute FPD category ≤ 450 ms [4]: 50% (3/6)
- Preparations in absolute FPD category > 450 ms [5]: 33%(2/6)
- Preparations in absolute FPD category > 480 ms [5]: 0% (0/6)
- Preparations in absolute FPD category > 500 ms [5]: 0% (0/6)
- Preparations in absolute FPD category ≤ 450 ms [5]: 67%(4/6)
- Preparations in absolute FPD category > 450 ms [6]: 38%(9/24)
- Preparations in absolute FPD category > 480 ms [6]: 17%(4/24)
- Preparations in absolute FPD category > 500 ms [6]: 29%(7/24)
- Preparations in absolute FPD category ≤ 450 ms [6]: 17% (4/24)
- Preparations in absolute FPD category > 500 ms [7]: 29%
- Preparations with EAD/TA [7]: no EAD/TAs were observed
- Preparations in absolute FPD category > 450 ms [8]: 0% (0/6)
- Preparations in absolute FPD category > 480 ms [8]: 50% (3/6)
- Preparations in absolute FPD category > 500 ms [8]: 50% (3/6)
- Preparations in absolute FPD category ≤ 450 ms [8]: 0% (0/6)
- Preparations in absolute FPD category > 450 ms [9]: 33%(2/6)
- Preparations in absolute FPD category > 480 ms [9]: 0% (0/6)
- Preparations in absolute FPD category > 500 ms [9]: 17%(1/6)
- Preparations in absolute FPD category ≤ 450 ms [9]: 50% (3/6)
- Preparations in absolute FPD category > 450 ms [10]: 50% (3/6)
- Preparations in absolute FPD category > 480 ms [10]: 0% (0/6)
- Preparations in absolute FPD category > 500 ms [10]: 33%(2/6)
- Preparations in absolute FPD category ≤ 450 ms [10]: 17%(1/6)
- Preparations in absolute FPD category > 450 ms [11]: 67%(4/6)
- Preparations in absolute FPD category > 480 ms [11]: 17%(1/6)
- Preparations in absolute FPD category > 500 ms [11]: 17%(1/6)
- Preparations in absolute FPD category ≤ 450 ms [11]: 0% (0/6)
- Slope factor of FPD-ISI regression, % change (cisapride 30 nM): 1.2274
- Slope factor of FPD-ISI regression, absolute FPD (ms) (cisapride 30 nM (sham 0.1204)): 0.1644
- Preparations in absolute FPD category > 450 ms [12]: 4% (1/24)
- Preparations in absolute FPD category > 480 ms [12]: 13%(3/24)
- Preparations in absolute FPD category > 500 ms [12]: 71%(17/24)
- Preparations in absolute FPD category ≤ 450 ms [12]: 8% (2/24)
- Preparations with EAD/TA [12]: 4%(1/24)
- Preparations in absolute FPD category > 500 ms (cisapride 30 nM, all 4 facilities, n=24, listed as cisapride): 71%
- Number of preparations that showed EAD/TAs (cisapride 30 nM, all 4 facilities, of 24): 1 preparation
- Preparations in absolute FPD category > 450 ms [13]: 0% (0/6)
- Preparations in absolute FPD category > 480 ms [13]: 0% (0/6)
- Preparations in absolute FPD category > 500 ms [13]: 83%(5/6)
- Preparations in absolute FPD category ≤ 450 ms [13]: 0% (0/6)
- Preparations with EAD/TA [13]: 17%(1/6)
- Preparations in absolute FPD category > 450 ms [14]: 17%(1/6)
- Preparations in absolute FPD category > 480 ms [14]: 0% (0/6)
- Preparations in absolute FPD category > 500 ms [14]: 50% (3/6)
- Preparations in absolute FPD category ≤ 450 ms [14]: 33%(2/6)
- Preparations in absolute FPD category > 450 ms [15]: 0% (0/6)
- Preparations in absolute FPD category > 480 ms [15]: 33%(2/6)
- Preparations in absolute FPD category > 500 ms [15]: 67%(4/6)
- Preparations in absolute FPD category ≤ 450 ms [15]: 0% (0/6)
- Preparations in absolute FPD category > 450 ms [16]: 0% (0/6)
- Preparations in absolute FPD category > 480 ms [16]: 17%(1/6)
- Preparations in absolute FPD category > 500 ms [16]: 83%(5/6)
- Preparations in absolute FPD category ≤ 450 ms [16]: 0% (0/6)
- Preparations in absolute FPD category > 450 ms [17]: 0% (0/24)
- Preparations in absolute FPD category > 480 ms [17]: 0% (0/24)
- Preparations in absolute FPD category > 500 ms [17]: 8%(2/24)
- Preparations in absolute FPD category ≤ 450 ms [17]: 0% (0/24)
- Preparations with EAD/TA [17]: 92%(22/24)
- Preparations with EAD/TA (cisapride 100 nM, all 4 facilities, n=24, listed as cisapride): 92%
- Preparations with EAD/TA (cisapride 100 nM, facility A, n=6): 100%(6/6)
- Preparations with EAD/TA (cisapride 100 nM, facility B, n=6): 100%(6/6)
- Preparations with EAD/TA (cisapride 100 nM, facility C, n=6): 100%(6/6)
- Preparations in absolute FPD category > 450 ms [18]: 0% (0/6)
- Preparations in absolute FPD category > 480 ms [18]: 0% (0/6)
- Preparations in absolute FPD category > 500 ms [18]: 33%(2/6)
- Preparations in absolute FPD category ≤ 450 ms [18]: 0% (0/6)
- Preparations with EAD/TA [18]: 67%(4/6)
- Preparations with EAD/TA (cisapride 300 nM, all 4 facilities, n=24): 100%(24/24)
- Preparations with EAD/TA (cisapride 300 nM, facility D, n=6): 100%(6/6)
- Effect on FPD (cumulative application): prolonged FPD in a concentration-dependent manner
- Use (rate) dependence of FPD prolongation: induced FPD prolongation in a reverse use-dependent manner

SMILES: Cc1cccc(CCN2CCC(C(=O)c3ccc(NS(C)(=O)=O)cc3)CC2)n1 [E-4031]
- Slope factor of FPD-ISI regression, % change (E-4031 1 nM): 0.9347
- Slope factor of FPD-ISI regression, % change (E-4031 10 nM): 1.8977
- Slope factor of FPD-ISI regression, absolute FPD (ms) (E-4031 10 nM (sham 0.1653)): 0.3328
- Use (rate) dependence of FPD prolongation: induced FPD prolongation in a reverse use-dependent manner
